According to US20240425867A1, “NUCLEIC ACID-BASED ASSEMBLY AND USES THEREOF” (Rheinische Friedrich-Wilhelms-Universität Bonn, priority 2016, published 2024):

Tests used:
[1] = Critical micelle concentration from pyrene fluorescence; assay type: physicochemical; details: pyrene 100 μM
Protocol: Critical micelle concentration (CMC) value of the trCLN3-L4 motif was further confirmed by internalizing pyrene into the hydrophobic-lipid core of the micellar aggregate followed by measuring the fluorescence of pyrene-loaded trCLN3-L4 nanoconstructs at different concentrations. For this experiment a fixed amount of pyrene in acetone was transferred to an empty tube and acetone was allowed to evaporate in the dark at 45° C. for 30 min using an Eppendorf concentrator. trCLN3-L4 solutions in the concentration range between 0.0005-0.5 mg/ml were then added to yield a final pyrene concentration fixed at 100 μM for all reactions (Table 3). The solutions were incubated at 90° C. for 10 minutes in the dark and slowly cooled down to room temperature overnight at a rate of 1° C./10 min in order to internalize pyrene into the hydrophobic lipid core. The pyrene-loaded trCLN3-L4 nanoconstructs were transferred into a 384-multi well plate and the fluorescence emission spectrum of each well was recorded at room temperature by using an excitation wave length of 339 nm in an EnSpire® Multimode Plate Reader (PerkinElmer).
In close proximity, two pyrene molecules form an excimer that emits fluorescence at a longer wavelength compared to the monomer emission. The formed excimer is a dimeric complex where one molecule exists in an excited state and the other molecule in a ground state. Monomer emission of pyrene occurs within a range of 360-400 nm whereas the excimer emission is obtained within the wavelength limit of 465-500 nm. The critical micelle concentration was determined by the distinguishable pyrene excimer fluorescence of the corresponding DNA concentration. See G. Uddin G et al., Am. J. Biochem. Mol. Biol. 2013, 3, 175-181; which reference is incorporated herein in its entirety.

[2] = Atomic force microscopy (AFM) size of nanoconstructs; assay type: physicochemical; details: Gaussian fit of at least 50 nanoconstructs
Protocol: All AFM images of the trCLN3-L4 and HyApNc aggregates were taken by using a Nanowizard III AFM (JPK instruments, Berlin) in tapping mode. ACTA probes with silicon tips were used for imaging in dry mode in air. A volume of 3 μL (5 mM) of a solution of magnesium acetate (MgAc2) in water was deposited on a freshly cleaved mica surface layer and allowed to incubate for 3 minutes and afterwards the surface was rinsed with 2×10 μL of milli-Q water and dried under air pressure. For imaging a volume of 3 μL of the trCLN3-L4/HyApNc solutions in ultra pure water were spotted on the pre-treated mica surface and allowed to incubate for 1 min. After 1 min incubation on the mica surface, the excess sample solution was gently shaken off and the mica surface was blown dry with air pressure and mounted to the AFM microscope for immediate imaging. […]
In a first step. we synthesized the lipid-modified phosphoramidite 1 with a C12-lipid chain incorporated at the 5-position of the uridine base (FIGS. 2A-B). […] We evaluated the CMC of the trCLN3-L4nanoconstructs using Forster resonance energy transfer (FRET; Example 3; FIGS. 6A-C; Table 2) and fluorescence studies with pyrene-loaded trCLN3-L4 nanoconstructs (FIGS. 7A-B; Table 3). […] The trCLN3-L4 3 nanoconstructs have an average diameter of 21.2±1.5 nm (FIG. 8C, upper panel), consistent with the size of 25 nm measured by TEM.

With “trCLN3-L4: trCLN3 aptamer with four C12-lipid-modified dU residues at the 5′-end; self-assembles into micellar nanoconstructs (TGGATGGTAGCTCGGTCGGGGTGGGTGGGTTGGCAAGTCT; four 5' C12-lipid-modified dU residues, chemistry not fully specified)” the I475/I373 ([1]; trCLN3-L4 0.0005 mg/mL (0.035 μM)) was 0.20, the I475/I373 ([1]; trCLN3-L4 0.001 mg/mL (0.07 μM)) was 0.23 and the I475/I373 ([1]; trCLN3-L4 0.0025 mg/mL (0.175 μM)) was 0.72. For the same substance, the I475/I373 ([1]; trCLN3-L4 0.005 mg/mL (0.35 μM)) was 1.98, the I475/I373 ([1]; trCLN3-L4 0.01 mg/mL (0.7 μM)) was 1.57 and the I475/I373 ([1]; trCLN3-L4 0.025 mg/mL (1.75 μM)) was 2.49. The I475/I373 ([1]; trCLN3-L4 0.05 mg/mL (3.5 μM)) was 4.69, the I475/I373 ([1]; trCLN3-L4 0.1 mg/mL (7.0 μM)) was 5.13 and the I475/I373 ([1]; trCLN3-L4 0.25 mg/mL (17.4 μM)) was 6.90. The I475/I373 ([1]; trCLN3-L4 0.5 mg/mL (35 μM)) was 7.83 and the average diameter [2] was 21.2±1.5 nm.
